In PubChem BioAssay AID248 (DTP/NCI, 2004):
Several values for one entry are separate records, joined by “and”; a condition that tells them apart may be missing. Equal entries are not always repeated. Inconclusive results and toxic doses are left out.

System: L1210 leukemia ip in BDF1 mice, survival T/C
Assay: NCI In Vivo Anticancer Drug Screen. Data for tumor model L1210 Leukemia (intraperitoneal) in B6D2F1 (BDF1) mice
Conditions: endpoint: mean survival time, higher = longer survival
Outline: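 Survival endpoint. Drug-treated group vs vehicle group, expressed as T divided by C. Tumor passaged by transplantation.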

[1] = dose: 100.0 mg/kg/injection, schedule: Q01DX009 (ip), vehicle: saline with Tween-80
[2] = dose: 200.0 mg/kg/injection, schedule: Q01DX009 (ip), vehicle: saline with Tween-80
[3] = dose: 400.0 mg/kg/injection, schedule: Q01DX009 (ip), vehicle: saline with Tween-80
[4] = dose: 100.0 mg/kg/injection, schedule: Q01DX009 (ip), vehicle: Klucel (hydroxypropylcellulose) (HPC)
[5] = dose: 100.0 mg/kg/injection, schedule: Q04DX003 (ip), vehicle: Klucel (hydroxypropylcellulose) (HPC)
[6] = dose: 200.0 mg/kg/injection, schedule: Q04DX003 (ip), vehicle: Klucel (hydroxypropylcellulose) (HPC)
[7] = dose: 400.0 mg/kg/injection, schedule: Q04DX003 (ip), vehicle: Klucel (hydroxypropylcellulose) (HPC)
[8] = dose: 100.0 mg/kg/injection, schedule: Q04DX002 (ip), vehicle: Klucel (hydroxypropylcellulose) (HPC)
[9] = dose: 200.0 mg/kg/injection, schedule: Q04DX002 (ip), vehicle: Klucel (hydroxypropylcellulose) (HPC)
[10] = dose: 400.0 mg/kg/injection, schedule: Q04DX002 (ip), vehicle: Klucel (hydroxypropylcellulose) (HPC)
[11] = dose: 100.0 mg/kg/injection, schedule: Q04DX003 (ip), vehicle: saline with Tween-80
[12] = dose: 200.0 mg/kg/injection, schedule: Q04DX003 (ip), vehicle: saline with Tween-80
[13] = dose: 400.0 mg/kg/injection, schedule: Q04DX003 (ip), vehicle: saline with Tween-80
[14] = dose: 200.0 mg/kg/injection, schedule: Q01DX009 (ip), vehicle: Klucel (hydroxypropylcellulose) (HPC)
[15] = dose: 400.0 mg/kg/injection, schedule: Q01DX009 (ip), vehicle: Klucel (hydroxypropylcellulose) (HPC)
[16] = dose: 100.0 mg/kg/injection, schedule: Q01DX001 (ip), vehicle: saline
[17] = dose: 200.0 mg/kg/injection, schedule: Q01DX001 (ip), vehicle: saline
[18] = dose: 400.0 mg/kg/injection, schedule: Q01DX001 (ip), vehicle: saline

With `COc1cccc(OC)c1C1(O)c2c(OC)cccc2Oc2cccc(OC)c21` the T/C [1] was 93 % of control, the T/C [2] was 90 % of control and the T/C [3] was 90 % of control.

`O=C1CSc2cc[nH]c21` was tested, and the T/C [4] was 95 % of control, the T/C [5] was 100 % of control and the T/C [6] was 95 % of control. The T/C [7] was 98 % of control.

With `CCOC(=O)c1[nH]c2ccccc2c1CN(CC)CC` the T/C (dose: 75.0 mg/kg/injection, schedule: Q01DX001 (ip), vehicle: carboxymethylcellulose (CMC)) was 94 % of control.

`O=C(O)c1ccccc1C(=O)NCc1ccc(Cl)cc1Cl` was tested, and the T/C [8] was 88 % of control, the T/C [9] was 100 % of control and the T/C [10] was 98 % of control.

In the case of `CCCCS(=O)(=O)Oc1ccc(N)c([N+](=O)[O-])c1`, the T/C [11] is reported as 101 % of control, the T/C [12] is reported as 101 % of control and the T/C [13] is reported as 88 % of control.

With `CC(=O)OC(CO)C(NC(=O)N1C(=O)C=CC1=O)NC(=O)N1C(=O)C=CC1=O` (centres undefined) the T/C (dose: 100.0 mg/kg/injection, schedule: Q01DX001 (ip), vehicle: carboxymethylcellulose (CMC)) was 95 % of control, the T/C (dose: 200.0 mg/kg/injection, schedule: Q01DX001 (ip), vehicle: carboxymethylcellulose (CMC)) was 101 % of control and the T/C (dose: 400.0 mg/kg/injection, schedule: Q01DX001 (ip), vehicle: carboxymethylcellulose (CMC)) was 113 % of control.

`Cc1cc(Cl)c(Cl)cc1NC(=O)c1ccccc1Cl` was tested, and the T/C [8] was 97 % of control, the T/C [9] was 97 % of control and the T/C [10] was 94 % of control.

With `C=CC(C)C1CCC2(C)C3=C(C(=O)CC12C)C1(C)CCC(OC(C)=O)C(C)(C)C1=C(OC(C)=O)C3=O` (centres undefined) the T/C [11] was 91 % of control, the T/C [12] was 91 % of control and the T/C [13] was 87 % of control.

For `O=C(O)C1CC(c2ccc(Cl)cc2)OC1=O` (centres undefined), the T/C (dose: 100.0 mg/kg/injection, schedule: Q04DX003 (ip), vehicle: saline) was 101 % of control, the T/C (dose: 200.0 mg/kg/injection, schedule: Q04DX003 (ip), vehicle: saline) was 104 % of control and the T/C (dose: 400.0 mg/kg/injection, schedule: Q04DX003 (ip), vehicle: saline) was 101 % of control.

`CCCCOC(=O)c1ccc(NC(=O)Nc2ccc(F)c([N+](=O)[O-])c2)cc1` was tested, and the T/C [4] was 98 % of control, the T/C [14] was 95 % of control and the T/C [15] was 101 % of control.

In the case of `CCCCSc1cc(C)nc2ccccc12`, the T/C (dose: 25.0 mg/kg/injection, schedule: Q01DX009 (ip), vehicle: saline with Tween-80) is reported as 100 % of control, the T/C (dose: 25.0 mg/kg/injection, schedule: Q04DX002 (ip), vehicle: saline with Tween-80) is reported as 93 % of control and the T/C (dose: 50.0 mg/kg/injection, schedule: Q01DX009 (ip), vehicle: saline with Tween-80) is reported as 96 % of control. The T/C (dose: 50.0 mg/kg/injection, schedule: Q04DX002 (ip), vehicle: saline with Tween-80) was 96 % of control, the T/C [1] was 93 % of control and the T/C (dose: 100.0 mg/kg/injection, schedule: Q04DX002 (ip), vehicle: saline with Tween-80) was 93 % of control.

In the case of `CCC(=O)Nc1cc(Cl)ccc1C`, the T/C [4] is reported as 98 % of control, the T/C [5] is reported as 102 % of control and the T/C [14] is reported as 98 % of control. For the same compound, the T/C [6] was 102 % of control, the T/C [15] was 95 % of control and the T/C [7] was 102 % of control.

With `BrCCCCCCCCCCC1(c2ccccc2)OCCO1` the T/C [4] was 107 % of control, the T/C [14] was 98 % of control and the T/C [15] was 93 % of control.

With `CCCSc1nc(N)nc2nc[nH]c12` the T/C (dose: 1.25 mg/kg/injection, schedule: Q01DX Z (ip), vehicle: carboxymethylcellulose (CMC)) was 91 % of control, the T/C (dose: 2.5 mg/kg/injection, schedule: Q01DX Z (ip), vehicle: carboxymethylcellulose (CMC)) was 114 % of control and the T/C (dose: 2.9 mg/kg/injection, schedule: Q01DX Z (ip), vehicle: carboxymethylcellulose (CMC)) was 114 % of control. For the same compound, the T/C (dose: 4.4 mg/kg/injection, schedule: Q01DX Z (ip), vehicle: carboxymethylcellulose (CMC)) was 116 % of control, the T/C (dose: 5.0 mg/kg/injection, schedule: Q01DX Z (ip), vehicle: carboxymethylcellulose (CMC)) was 118 % of control and the T/C (dose: 8.3 mg/kg/injection, schedule: Q01DX009 (ip), vehicle: saline) was 102 % of control. For the same compound, the T/C (dose: 12.0 mg/kg/injection, schedule: Q01DX009 (ip), vehicle: saline) was 105 % of control, the T/C (dose: 20.0 mg/kg/injection, schedule: Q01DX Z (ip), vehicle: carboxymethylcellulose (CMC)) was 151 % of control and 168 % of control and the T/C (dose: 29.0 mg/kg/injection, schedule: Q01DX009 (ip), vehicle: Klucel (hydroxypropylcellulose) (HPC)) was 121 % of control. For the same compound, the T/C (dose: 40.0 mg/kg/injection, schedule: Q01DX Z (ip), vehicle: carboxymethylcellulose (CMC)) was 150 % of control and 153 % of control and 156 % of control, the T/C (dose: 62.0 mg/kg/injection, schedule: Q01DX001 (ip), vehicle: other) was 108 % of control and the T/C (dose: 62.0 mg/kg/injection, schedule: Q## X001 (ip), vehicle: other) was 119 % of control. For the same compound, the T/C (dose: 90.0 mg/kg/injection, schedule: Q01DX Z (ip), vehicle: carboxymethylcellulose (CMC)) was 105 % of control, the T/C (dose: 125.0 mg/kg/injection, schedule: Q01DX001 (ip), vehicle: other) was 118 % of control and 88 % of control and the T/C (dose: 125.0 mg/kg/injection, schedule: Q## X001 (ip), vehicle: other) was 123 % of control. The T/C (dose: 135.0 mg/kg/injection, schedule: Q01DX Z (ip), vehicle: carboxymethylcellulose (CMC)) was 92 % of control, the T/C (dose: 160.0 mg/kg/injection, schedule: Q01DX Z (ip), vehicle: carboxymethylcellulose (CMC)) was 151 % of control and the T/C (dose: 200.0 mg/kg/injection, schedule: Q01DX009 (ip), vehicle: saline) was 90 % of control. For the same compound, the T/C (dose: 250.0 mg/kg/injection, schedule: Q01DX001 (ip), vehicle: other) was 120 % of control and 124 % of control, the T/C (dose: 300.0 mg/kg/injection, schedule: Q01DX001 (ip), vehicle: other) was 115 % of control and 118 % of control and the T/C (dose: 300.0 mg/kg/injection, schedule: Q## X001 (ip), vehicle: other) was 117 % of control. For the same compound, the T/C (dose: 400.0 mg/kg/injection, schedule: Q01DX001 (ip), vehicle: other) was 101 % of control, the T/C (dose: 400.0 mg/kg/injection, schedule: Q## X001 (ip), vehicle: other) was 101 % of control and the T/C (dose: 500.0 mg/kg/injection, schedule: Q## X001 (ip), vehicle: other) was 203 % of control.

In the case of `CCOc1ccc(-n2c(=O)c(N=Nc3ccc(Br)cc3)c(O)n(-c3ccc(C)cc3)c2=S)cc1`, the T/C (dose: 50.0 mg/kg/injection, schedule: Q01DX001 (ip), vehicle: Klucel (hydroxypropylcellulose) (HPC)) is reported as 95 % of control, the T/C (dose: 100.0 mg/kg/injection, schedule: Q01DX001 (ip), vehicle: Klucel (hydroxypropylcellulose) (HPC)) is reported as 101 % of control and the T/C (dose: 200.0 mg/kg/injection, schedule: Q01DX001 (ip), vehicle: Klucel (hydroxypropylcellulose) (HPC)) is reported as 101 % of control.

For `COc1ccc([N+](=O)[O-])cc1NC(=O)CCCCCCCCC(=O)Nc1cc([N+](=O)[O-])ccc1OC`, the T/C (dose: 100.0 mg/kg/injection, schedule: Q04DX002 (ip), vehicle: saline) was 102 % of control, the T/C (dose: 200.0 mg/kg/injection, schedule: Q04DX002 (ip), vehicle: saline) was 102 % of control and the T/C (dose: 400.0 mg/kg/injection, schedule: Q04DX002 (ip), vehicle: saline) was 109 % of control.

For `COc1ccc(OCCOC(=O)Nc2ccccc2C(F)(F)F)cc1`, the T/C [5] was 105 % of control, the T/C [6] was 90 % of control and the T/C [7] was 90 % of control.

In the case of `COc1ccc(-c2sc(C)c(-c3ccc(OC)cc3)c2C)cc1`, the T/C [16] is reported as 96 % of control, the T/C [17] is reported as 96 % of control and the T/C [18] is reported as 94 % of control.

`COc1ccc(-c2nc3cc(Cl)ccc3c(=O)o2)cc1` was tested, and the T/C [1] was 94 % of control, the T/C [2] was 94 % of control and the T/C [3] was 90 % of control.

With `CCOC(=O)C(Cc1c(C)c(OC)c(CC(C(=O)OCC)C(=O)OCC)c(C)c1OC)C(=O)OCC` the T/C [1] was 101 % of control, the T/C [11] was 93 % of control and the T/C [2] was 97 % of control. The T/C [12] was 88 % of control, the T/C [3] was 92 % of control and the T/C [13] was 90 % of control.

In the case of `CCCC1CC=CCC12C(=O)NC(=O)NC2=O` (centres undefined), the T/C [16] is reported as 103 % of control, the T/C [17] is reported as 97 % of control and the T/C [18] is reported as 97 % of control.

With `O=C(/C=C/c1ccncc1)c1cccc2ccccc12` the T/C [11] was 89 % of control and the T/C [12] was 97 % of control.

`Cc1ccc(S(=O)(=O)Oc2ccc(C(C)(C)c3ccc(OS(=O)(=O)c4ccc(C)cc4)cc3)cc2)cc1` was tested, and the T/C (dose: 50.0 mg/kg/injection, schedule: Q01DX001 (ip), vehicle: saline) was 98 % of control, the T/C [16] was 93 % of control and the T/C [4] was 96 % of control. The T/C [5] was 93 % of control, the T/C [17] was 93 % of control and the T/C [14] was 91 % of control. For the same compound, the T/C [6] was 95 % of control, the T/C [18] was 90 % of control and the T/C [15] was 91 % of control. The T/C [7] was 98 % of control.
